{
  "source": "patent US20130236964A1",
  "about": "“METHODS, NUCLEIC ACID CONSTRUCTS AND CELLS FOR TREATING NEURODEGENERATIVE DISORDERS” (RAMOT AT TEL-AVIV UNIVERSITY LTD., priority 2002, published 2013)",
  "molecules": {"B1": {"name": "neurotrophin-3 (protein, UniProt P20783 139-257, looked up)", "Neurotrophin-3": "YAEHKSHRGEYSVCDSESLWVTDKSSAIDIRGHQVTVLGEIKTGNSPVKQYFYETRCKEARPVKNGCRGIDDKHWNSQCKTSQTYVRALTSENNKLVGWRWIRIDTSCVCALSRKIGRT", "notes": "neurotrophin-3, inducing substance in oligodendrocytes differentiation media"}},
  "key": {"[1]": {"test_system": "Human BMSCs", "experiment": "Fatty acid composition of BMSC after fatty acid supplementation of media (lipid extraction, gas chromatography)", "assay_type": "cell-based", "procedure": "DHA and AA were diluted in DMEM with 1% horse serum. α-tocopherol was dissolved in ethanol (absolute) before supplementation. FA and α-tocopherol were stored at 4° C. in darkness to prevent their oxidation. Following forty-eight hours, the “additional differentiation medium” was changed to “differentiation medium”, containing DMEM supplemented with SPN, 2 mM L-glutamine, 200 μM butylated hydroxyanisole (BHA), 1 mM dibutyryl cyclic AMP (dbcAMP), 0.5 mM isobutylmethylxanthine (IBMX), 1 μM retinoic acid (RA) and N2 supplement with increasing amounts of DHA (Sigma) and AA (Sigma) (0, 30, 40, 50 and 60 μM). α-tocopherol was added at a concentration of 40 μM to all samples.\nFollowing removal of medium from the culture dish, adherent cells were washed twice with cold PBS and dried by gentle aspiration with a Pasteur pipette. To each culture dish, 3 ml of a hexane:isopropanol (3:2 vol:vol) (HIP) solvent mixture containing 5 mg/dl butylated hydroxytoluene (BHT) was added. The dishes were gently shaken at room temperature for 10 minutes and the supernates were transferred to methylation tubes. The procedure was repeated with 1.5 ml HIP and the lipid extracts were added to the same tubes. For quantitative experiments which included simultaneous protein determination, lipid extraction was performed with HIP which contained a known amount of heneicosanoic acid (21:0) so as to obtain an internal standard. In addition, for these experiments, known volumes of concentrated cell suspensions were directly extracted with HIP and the protein content was determined from an equal volume of cell concentrates.\nThe lipid extracts were evaporated to dryness under a stream of nitrogen. […] The tubes were capped under N2, vortexed and heated at 100° C. for 1 hour. The resulting fatty acid methyl esters (FAME) were extracted into hexane, after acidification of the mixture with 3 drops of 3N HCl, and kept under N2 at −20° C. until analysis.\nInjection was performed with a split/splitless injector kept at 220° C. at a split ratio of 1:30. Detector temperature was 250° C. The column temperature gradient was as follows: 70° C. for 2 min, increased at a rate of 20° C./min to 150° C. where it remained for 5 min, increased at 3° C./min to 210° C. and a final increase at 10° C./min to 230° C. at which it was kept for 3 min until the end of the run. FAME peaks were integrated and computed with the aid of the Varian Star Integrator computer package and were identified by comparison of their retention times with that of authentic standards. Injection of the samples was performed with the aid of a CTC-AS 200 autosampler.\nThe amount of individual fatty acids is presented as % weight of the total identified fatty acids and as μg FA/μg protein."}, "[2]": {"test_system": "mBMSc", "experiment": "Differentiation of mouse BMSc into oligodendrocyte precursors (morphology, survival, A2B5 immunoassay)", "assay_type": "cell-based", "conditions": "for effect on cell-morphology (comparison of substances) / neuronal cell morphology: 24 hr incubation; for neuronal cell morphology: inducing substance alone", "procedure": "Mice B5/EGFP (male) were sacrificed by cervical dislocation and were prepared with 70% alcohol solution. […] The cell pellet was resuspended in 1 ml growth medium and diluted to 10 ml. The cells were plated in polystyrene plastic tissue cultures 75 cm^2 flask (Corning Incorporated, Corning, N.Y.) in the “proliferation medium” (see Example 1 hereinabove) for one week. The cells were then transferred to polylysin-coated slide-chambers (3200 cells/well), supplemented “proliferation medium” and incubated for 24 hours at 37° C. The growth medium was then replaced with “oligodendrocytes differentiation media” composed of DMEM supplemented with 2 mM glutamine, SPN, one or more of the following substances: bFGF (10 ng/ml), EGF (10-20 ng/ml), Interlukin-1b (20-40 ng/ml), dbcAMP (1-2 mM), retinoic acid (0.5 or 1 μM), neurotrophin-3 (50 or 100 ng/ml), human platelet derived growth factor (PDGF-AA; 5-20 ng/ml), N2 supplement, triiodothyronien (T3; 40 ng/ml) and ciliary neurotrophic factor (20 ng/ml; CNTF).\nThe cultures were incubated at 37° C. for 1, 2 or 6 days (replacing growth media with fresh media every two days) then fixed in 4% PFA. Cells were blocked in 10% FCS solution then incubated with 5 ug/ml anti-A2B5 monoclonal antibody (1:200; R&D systems; 1:200) overnight at 4° C. Cells were then washed twice in PBS for 10 min and incubated with goat-anti-mouse Cy-3 second antibody (Jackson laboratories; 1:500) at room temperature for 20 min. The incidence of cells stained positive for A2B5 (an early marker of oligodendrocyte progenitors) was determined by using a fluorescent microscope equipped with Image ProPlus cell-counting program (Cybernetics)."}, "[3]": {"test_system": "hBMSc", "experiment": "HPLC analysis of dopamine, DOPA and DOPAC in supernatant of differentiating hBMSc", "assay_type": "cell-based, human", "conditions": "medium supplemented with 56 mM KCl, 10 minutes incubation", "procedure": "hBMSc were cultured as described in Table 6 below. [table] Samples were stabilized by adding 88 μl of 85% orthophosphoric acid and 4.4 mg of metabisulfite to ml sample. Dopamine was extracted by aluminium adsorption (Alumina, Bioanalytical Systems Inc.). Separation of injected samples (50 μl) was effected by isocratic elution on a HPLC-electron chemical detection (HPLC-ECD) system with a reverse-phase C18 column (125×4.6 mm dimension, Hichrom, Inc.) in a monochloroacetate buffer mobile phase. The flow rate was set at 1.2 ml per min, and the oxidative potential of the analytical cell was set at +650 mV. Results were validated by co-elution with dopamine standards under varying buffer conditions and detector settings."}, "[4]": {"conditions": "+DHA (30 μM), Additional differentiation medium"}},
  "data": [
    {"molecule": "CCCCC/C=C\\C/C=C\\C/C=C\\C/C=C\\CCCC(=O)O", "note": "[AA, arachidonic acid]", "values": [
      {"measurement": "optimal concentration in the additional differentiation medium to obtain the best cellular FA profile", "setting": "[1]", "result": 40, "unit": "µM"}
    ]},
    {"molecule": "Cc1c(C)c2c(c(C)c1O)CC[C@@](C)(CCC[C@H](C)CCC[C@H](C)CCCC(C)C)O2", "note": "[α-Tocopherol, α-tocopherol]", "values": [
      {"measurement": "effect on PUFA composition of the neuron-like cells", "setting": "[1]; 40 μM", "result": "did not affect the PUFA composition"}
    ]},
    {"molecule": "IL-6: IL-6, named only in the result sentence (data not shown)", "values": [
      {"measurement": "effect on cell-morphology (comparison of substances)", "setting": "[2]", "result": "most pronounced effect on cell-morphology"}
    ]},
    {"molecule": "N[C@@H](Cc1cc(I)c(Oc2ccc(O)c(I)c2)c(I)c1)C(=O)O", "note": "[thyroid factor 3, triiodothyronien]", "values": [
      {"measurement": "effect on cell-morphology (comparison of substances)", "setting": "[2]", "result": "most pronounced effect on cell-morphology"}
    ]},
    {"molecule": "[Cl-].[K+]", "note": "[KCl]", "values": [
      {"measurement": "effect on dopamine secretion", "setting": "[3]", "result": "further enhanced dopamine secretion"}
    ]},
    {"molecule": "CC/C=C\\C/C=C\\C/C=C\\C/C=C\\C/C=C\\C/C=C\\CCC(=O)O", "note": "[DHA, docosahexaenoic acid]", "values": [
      {"measurement": "optimal concentration in the additional differentiation medium to obtain the best cellular FA profile", "setting": "[1]", "result": 40, "unit": "µM"},
      {"measurement": "20:4 n-6 of BMSC", "setting": "[1]; [4]", "result": 8.15, "unit": "% weight"},
      {"measurement": "22:6 n-3 of BMSC", "setting": "[1]; [4]", "result": 16.70, "unit": "% weight"},
      {"measurement": "Sum MUFA of BMSC", "setting": "[1]; [4]", "result": 24.24, "unit": "% weight"},
      {"measurement": "Sum PUFA of BMSC", "setting": "[1]; [4]", "result": 33.08, "unit": "% weight"},
      {"measurement": "Sum Saturated fatty acids of BMSC", "setting": "[1]; [4]", "result": 42.69, "unit": "% weight"},
      {"measurement": "20:4 n-6 of BMSC", "setting": "[1]; +DHA, Differentiation medium", "result": 5.40, "unit": "% weight"},
      {"measurement": "22:6 n-3 of BMSC", "setting": "[1]; +DHA, Differentiation medium", "result": 13.01, "unit": "% weight"},
      {"measurement": "Sum MUFA of BMSC", "setting": "[1]; +DHA, Differentiation medium", "result": 12.32, "unit": "% weight"},
      {"measurement": "Sum PUFA of BMSC", "setting": "[1]; +DHA, Differentiation medium", "result": 25.71, "unit": "% weight"},
      {"measurement": "Sum Saturated fatty acids of BMSC", "setting": "[1]; +DHA, Differentiation medium", "result": 61.79, "unit": "% weight"}
    ]},
    {"molecule": "CCCC(=O)Nc1ncnc2c1ncn2[C@@H]1O[C@@H]2COP(=O)(O)O[C@H]2[C@H]1OC(=O)CCC", "note": "[dbcAMP, dibutyryl cyclic AMP]", "values": [
      {"measurement": "effect on cell-morphology (comparison of substances)", "setting": "[2]", "result": "most pronounced effect on cell-morphology"},
      {"measurement": "neuronal cell morphology", "setting": "[2]", "result": "Neuronal cell morphology was observed"}
    ]},
    {"molecule": "Interlukin-1b [IL-1b]", "values": [
      {"measurement": "neuronal cell morphology", "setting": "[2]", "result": "Neuronal cell morphology was observed"}
    ]},
    {"molecule": "B1", "values": [
      {"measurement": "incidence of antibody-labeled A2B5 (comparison of substances)", "setting": "[2]", "result": "highest incidence"},
      {"measurement": "effect on cell-morphology (comparison of substances)", "setting": "[2]", "result": "most pronounced effect on cell-morphology"},
      {"measurement": "neuronal cell morphology", "setting": "[2]", "result": "Neuronal cell morphology was observed"}
    ]}
  ]
}
